Columns and labels:
[1] = biological target: D(3) dopamine receptor (Homo sapiens, UniProt P35462)
Description: Partial agonist activity at human D3 receptor assessed as inhibition constant

[2] = biological target: T1, D(4) dopamine receptor (Homo sapiens, UniProt P21917)
T1 sequence (P21917 whole entry): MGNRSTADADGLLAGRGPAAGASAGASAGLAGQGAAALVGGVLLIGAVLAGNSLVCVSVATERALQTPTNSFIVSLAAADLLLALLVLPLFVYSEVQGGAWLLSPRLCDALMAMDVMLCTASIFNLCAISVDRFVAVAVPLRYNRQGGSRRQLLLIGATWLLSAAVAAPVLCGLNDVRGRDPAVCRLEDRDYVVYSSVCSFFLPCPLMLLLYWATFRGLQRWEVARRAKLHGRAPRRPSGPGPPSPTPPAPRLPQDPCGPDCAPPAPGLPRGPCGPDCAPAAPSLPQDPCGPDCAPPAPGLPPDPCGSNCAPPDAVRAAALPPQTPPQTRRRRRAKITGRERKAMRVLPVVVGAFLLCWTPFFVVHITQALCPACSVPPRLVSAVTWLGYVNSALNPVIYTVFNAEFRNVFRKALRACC
Description: Partial agonist activity at human D4 receptor assessed as inhibition constant

[3] = biological target: D(2) dopamine receptor (Homo sapiens, UniProt P14416)
D(2) dopamine receptor, sequence (P14416 whole entry): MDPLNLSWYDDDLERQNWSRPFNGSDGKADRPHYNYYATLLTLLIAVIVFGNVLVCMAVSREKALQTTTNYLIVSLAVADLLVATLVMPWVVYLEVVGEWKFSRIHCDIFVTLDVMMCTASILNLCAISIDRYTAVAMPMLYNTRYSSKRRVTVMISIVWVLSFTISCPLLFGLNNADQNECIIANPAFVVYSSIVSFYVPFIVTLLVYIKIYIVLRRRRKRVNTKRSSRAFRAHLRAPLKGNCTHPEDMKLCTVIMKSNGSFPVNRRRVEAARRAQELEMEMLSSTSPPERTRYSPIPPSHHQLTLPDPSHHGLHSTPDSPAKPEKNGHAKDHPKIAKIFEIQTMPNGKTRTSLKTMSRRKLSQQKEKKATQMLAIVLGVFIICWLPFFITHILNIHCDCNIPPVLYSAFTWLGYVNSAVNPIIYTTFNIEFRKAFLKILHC
Description: Partial agonist activity at D2 receptor (unknown origin) assessed as increase in cAMP accumulation

D(3) dopamine receptor, sequence (P35462 whole entry): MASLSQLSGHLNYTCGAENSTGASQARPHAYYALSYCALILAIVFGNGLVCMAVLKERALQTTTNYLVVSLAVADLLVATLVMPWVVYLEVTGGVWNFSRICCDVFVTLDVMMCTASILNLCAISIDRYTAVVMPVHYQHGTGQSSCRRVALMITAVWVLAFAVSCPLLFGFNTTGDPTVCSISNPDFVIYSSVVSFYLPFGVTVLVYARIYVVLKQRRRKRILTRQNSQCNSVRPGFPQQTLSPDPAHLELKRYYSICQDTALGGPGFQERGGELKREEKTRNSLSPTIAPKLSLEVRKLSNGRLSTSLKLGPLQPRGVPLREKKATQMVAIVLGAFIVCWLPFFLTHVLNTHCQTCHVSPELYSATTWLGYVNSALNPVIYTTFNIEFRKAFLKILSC

SMILES | Ki [1] | Ki [2] | EC50 [3]
CC1Cc2ccccc2N1C(=O)NCCCCN(C)[C@H]1Cc2cccc3[nH]c(=O)n(c23)C1 (some centres undefined) | 139 nM | Not Active | 
CN(C)C(=O)N[C@H]1CC[C@H](CCN2CCN(c3cccc(Cl)c3Cl)CC2)CC1 [CARIPRAZINE] |  | Not Active | 
Cn1ccc2c(N3CCN(CCCCOc4ccc5c(c4)NC(=O)CC5)CC3)cccc21 |  |  | Not Active
